Source: patent US8846737B2, “Compound” (Sterix Limited, priority 2009, dated 2014)

Experiments:
rats = conditions: cited from earlier work
steroid sulphatase = biological target: T1, steroid sulphatase (Homo sapiens, UniProt P08842); conditions: compared with EMATE; cited from earlier work
T1 sequence (P08842 22-583): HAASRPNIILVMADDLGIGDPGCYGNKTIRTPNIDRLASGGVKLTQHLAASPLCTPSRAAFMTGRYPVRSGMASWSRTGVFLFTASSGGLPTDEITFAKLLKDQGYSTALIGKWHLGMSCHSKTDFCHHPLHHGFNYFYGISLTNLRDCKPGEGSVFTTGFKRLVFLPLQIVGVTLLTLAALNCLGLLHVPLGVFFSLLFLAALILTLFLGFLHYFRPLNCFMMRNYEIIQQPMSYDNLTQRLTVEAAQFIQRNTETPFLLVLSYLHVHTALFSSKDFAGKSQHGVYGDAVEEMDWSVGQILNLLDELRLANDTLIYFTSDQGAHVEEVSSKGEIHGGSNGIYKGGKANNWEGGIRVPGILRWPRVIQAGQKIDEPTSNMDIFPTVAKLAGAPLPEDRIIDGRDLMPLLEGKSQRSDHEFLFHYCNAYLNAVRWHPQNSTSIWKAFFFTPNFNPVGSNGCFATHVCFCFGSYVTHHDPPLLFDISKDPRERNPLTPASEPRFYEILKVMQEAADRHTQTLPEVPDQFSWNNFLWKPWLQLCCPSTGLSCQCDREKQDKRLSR

E1-STS = biological target: T2, E1-STS (Homo sapiens, UniProt P08842); conditions: intact MCF-7 cells, at 0.1 nM; cited from earlier work
T2 construct: host or cells: intact MCF-7 cells (endogenous enzyme)
T2 sequence (P08842 22-583): T1 sequence (P08842 22-583)

Steroid sulphatase (STS) = biological target: T3, Steroid sulphatase (STS) (Homo sapiens, UniProt P08842); test: Inhibition of steroid sulphatase activity in JEG3 cells (Protocol 1); format: cell-based; conditions: intact JEG3 cells, [6,7-3H]oestrone-3-sulphate, 3-4 hours
T3 construct: host or cells: JEG3 choriocarcinoma cells, intact monolayers
T3 sequence (P08842 22-583): T1 sequence (P08842 22-583)
Procedure: Assay for Determining STS Activity Using Cancer Cells
Inhibition of Steroid Sulphatase Activity in JEG3 Cells
Steroid sulphatase activity is measured in vitro using intact JEG3 choriocarcinoma cells.
Cells are maintained in Minimal Essential Medium (MEM) containing 20 mM HEPES, 5% foetal bovine serum, 2 mM glutamine, non-essential amino acids and 0.075% sodium bicarbonate. Up to 30 replicate 25 cm^2 tissue culture flasks are seeded with approximately 1×10^5 cells/flask using the above medium Cells are grown to 80% confluency and the medium is changed every third day.
Intact monolayers of JEG3 cells in triplicate 25 cm^2 tissue culture flasks are washed with Earle's Balanced Salt Solution (EBSS) and incubated for 3-4 hours at 37° C. with 5 pmol (7×10^5 dpm) [6, 7-3H]oestrone-3-sulphate (specific activity 60 Ci/mmol) in serum-free MEM (2.5 ml) together with oestrone-3-sulphamate (11 concentrations: 0; 1fM; 0.01 pM; 0.1 pM, 1 pM; 0.01 nM; 0.1 nM; 0.01 mM; 0.1 mM; 1 mM). After incubation each flask is cooled and the medium (1 ml) is pipetted into separate tubes containing [14C]oestrone (7×10^3 dpm) (specific activity 97 Ci/mmol). The mixture is shaken thoroughly for 30 seconds with toluene (5 ml) Experiments have shown that >90% [14C]oestrone and <0 1% [3H]oestrone-3-sulphate is removed from the aqueous phase by this treatment A portion (2 ml) of the organic phase is removed, evaporated and the 3H and 14C content of the residue determined by scintillation spectrometry The mass of oestrone-3-sulphate hydrolysed was calculated from the 3H counts obtained (corrected for the volumes of the medium and organic phase used, and for recovery of [14C] oestrone added) and the specific activity of the substrate Each batch of experiments includes incubations of microsomes prepared from a sulphatase-positive human placenta (positive control) and flasks without cells (to assess apparent non-enzymatic hydrolysis of the substrate). The number of cell nuclei per flask is determined using a Coulter Counter after treating the cell monolayers with Zaponin One flask in each batch is used to assess cell membrane status and viability using the Trypan Blue exclusion method (Phillips, H J. (1973) In: Tissue culture and applications, [eds: Kruse, D. F. & Patterson, M. K]; pp 406-408; Academic Press, New York)
Results for steroid sulphatase activity are expressed as the mean±1S.D. of the total product (oestrone+oestradiol) formed during the incubation period (3-4 hours) calculated for […] and, for values showing statistical significance, as a percentage reduction (inhibition) over incubations containing no oestrone-3-sulphamate. Unpaired Student's t-test was used to test the statistical significance of results
Sterioid sulphatase inhibition was measured in accordance with Protocol 1

Aromatase = biological target: T4, Aromatase (Homo sapiens, UniProt P11511); test: Aromatase activity in JEG3 cells (Protocol 6); format: cell-based; conditions: intact JEG3 cells, [1β-3H]androstenedione, 30 min
T4 construct: host or cells: JEG3 choriocarcinoma cells, intact monolayers
T4 sequence (P11511 1-503): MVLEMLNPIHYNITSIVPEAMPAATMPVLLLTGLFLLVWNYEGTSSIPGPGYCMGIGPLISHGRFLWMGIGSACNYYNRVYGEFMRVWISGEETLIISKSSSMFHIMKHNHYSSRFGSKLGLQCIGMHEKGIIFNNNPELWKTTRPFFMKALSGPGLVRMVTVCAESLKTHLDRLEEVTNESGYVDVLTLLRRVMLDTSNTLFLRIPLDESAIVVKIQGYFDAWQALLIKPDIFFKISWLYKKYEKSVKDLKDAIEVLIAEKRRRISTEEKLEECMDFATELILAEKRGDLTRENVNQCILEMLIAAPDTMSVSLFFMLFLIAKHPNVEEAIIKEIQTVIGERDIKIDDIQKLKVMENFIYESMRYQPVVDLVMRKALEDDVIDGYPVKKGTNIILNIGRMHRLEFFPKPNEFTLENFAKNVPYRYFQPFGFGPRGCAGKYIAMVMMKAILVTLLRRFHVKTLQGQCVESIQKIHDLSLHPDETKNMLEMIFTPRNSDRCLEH
Procedure: Assay for Determining Aromatase Activity Using JEG3 Cells
Aromatase activity is measured in JEG3 choriocarcinoma cells, obtained from the ATCC. […] During the aromatase reaction, ^3H2O is liberated which can be quantified using a liquid scintillation spectrometer. […] The number of cell nuclei per flask is determined using a Coulter Counter after treating the cell monolayers with Zaponin.
Aromatase inhibition was measured in accordance with Protocol 6.

| Compound | IC50 (Steroid sulphatase (STS)) | IC50 (Aromatase) | also measured |
| --- | --- | --- | --- |
| COc1cc2c(cc1OS(N)(=O)=O)CC[C@@H]1[C@@H]2CC[C@]2(C)C(=O)CC[C@@H]12 [2-methoxyoestrone-3-O-sulphamate] | – | – | oestrogenicity (rats; rat, in vivo): devoid of oestrogenicity; potency as steroid sulphatase inhibitor (steroid sulphatase): equipotent with EMATE |
| CC12CCC3c4ccc(OS(N)(=O)=O)cc4CCC3C1CCC2=O (centres unmarked) [EMATE, oestrone-3-sulphamate] | – | – | oral uterotrophic activity relative to estradiol (rats; rats, oral): 100 times; inhibition of E1-STS activity (E1-STS): more than 99% |
| N#Cc1ccc(N(Cc2ccc(OS(N)(=O)=O)cc2)n2cnnc2)cc1Oc1ccccc1 [Compound 57] | 62 ± 13 nM | 12.5 ± 2.3 nM | – |
| N#Cc1ccc(N(Cc2ccc(OS(N)(=O)=O)cc2)n2cnnc2)cc1N1CCCCCC1=O [Compound 11] | 1300 ± 265 nM | 850 ± 104 nM | – |
| N#Cc1ccc(N(Cc2ccc(OS(N)(=O)=O)cc2)n2cnnc2)cc1CN1CCCC1 [Compound 41] | 4360 ± 554 nM | 97 ± 2.7 nM | – |
| COc1ccc(-c2cc(N(Cc3c(F)cc(OS(N)(=O)=O)cc3F)n3cnnc3)ccc2C#N)cc1 [Compound 36] | 0.1 nM | < 0.1 nM | – |
| N#Cc1ccc(N(Cc2c(F)cc(OS(N)(=O)=O)cc2F)n2cnnc2)cc1-c1ccc(F)cc1 [Compound 47] | 14 ± 0.87 nM | 5.6 ± 0.1 nM | – |
| N#Cc1ccc(N(Cc2ccc(OS(N)(=O)=O)cc2)n2cnnc2)cc1N1CCCCCC1 [Compound 19] | 181 ± 8 nM | 3.2 ± 0.1 nM | – |
| COc1ccc(Cc2cc(N(Cc3ccc(OS(N)(=O)=O)cc3)n3cnnc3)ccc2C#N)cc1 [Compound 45] | 292 ± 80 nM | 40.7 ± 4.5 nM | – |

Second part, led by results:

| IC50 (Steroid sulphatase (STS)) | IC50 (Aromatase) | Compound | also measured |
| --- | --- | --- | --- |
| 55 ± 6 nM | 0.47 ± 0.18 nM | N#Cc1ccc(N(Cc2ccc(OS(N)(=O)=O)cc2)n2cnnc2)cc1-c1ccc(F)cc1 [CAB06078, 4-(((6-Cyano-4′-fluorobiphenyl-3-yl)(4H-1,2,4-triazol-4-yl)amino)methyl)phenyl sulfamate] | – |
| 2900 ± 100 nM | 0.05 ± 0.01 nM | N#Cc1ccc(N(Cc2ccc(Br)cc2)n2cnnc2)cc1-c1ccc(OS(N)(=O)=O)cc1 [CAB06059, 5′-((4-Bromobenzyl)(4H-1,2,4-triazol-4-yl)amino)-2′-cyanobiphenyl-4-yl sulfamate] | – |
| 17 ± 2 nM | 0.14 ± 0.01 nM | N#Cc1ccc(N(Cc2ccc(OS(N)(=O)=O)cc2)n2cnnc2)cc1-c1ccccc1 [CAB06025, 4-(((6-Cyanobiphenyl-3-yl)(4H-1,2,4-triazol-4-yl)amino)methyl)phenyl sulfamate] | – |
| 2900 ± 180 nM | 0.1 ± 0.02 nM | N#Cc1ccc(N(Cc2ccccc2)n2cnnc2)cc1-c1ccc(OS(N)(=O)=O)cc1 [CAB06054, 5′-(Benzyl(4H-1,2,4-triazol-4-yl)amino)-2′-cyanobiphenyl-4-yl sulfamate] | – |
